# Tests used:
# [1] = system: blood MetHb; assay: Blood methaemoglobin (MetHb) concentration on day 7 by pulse CO-oximeter; assay type: in vivo, human
# Source text: All patients in the phase 1 trial and the three efficacy trials had frequent blood MetHb measurements taken using non-invasive signal extraction pulse CO-oximeter handheld machines. For the three efficacy trials, we excluded measurements taken at or after recurrence of vivax malaria. Because erroneous readings from the handheld oximeters can occur, we inspected visually the longitudinal MetHb curves for each patient. […] All patients from this site were excluded from the MetHb analysis ( n =91), resulting in a total of 9632 MetHb measurements across 746 P. vivax infected patients and 72 healthy volunteers.
# [2] = system: Plasmodium vivax; assay: Radical cure efficacy: any P. vivax recurrence within 4 months in patients, pooled DETECTIVE part 1/2 and GATHER (logistic regression and Emax models); assay type: in vivo, human
# Source text: The primary endpoint for the main efficacy analyses was any P. vivax recurrence within 4 months. We chose the binary endpoint of any recurrence rather than the time to first recurrence because tafenoquine has both asexual stage antimalarial activity ([Fukuda et al., 2017]) and hypnozoiticidal activity. […] The choice of a particular cut-off for follow-up is thus a trade-off between sensitivity and specificity. Longer follow-up will increase the sensitivity of the endpoint (include more relapses) but decrease specificity (include more reinfections).
# For all predictors we fitted Bayesian mixed effects logistic regression models (random intercepts for study and study site), with adjustment for day 0 parasitaemia (log transformed). Logistic regression allows inference of the odds-ratio for recurrence for the predictive variable of interest, assuming a linear relationship between the predictive variable and log-odds for recurrence.
# For the mg/kg dose (the primary predictor of interest), the dose-response relationship was then assessed under a Bayesian Emax model, where the dose-dependent logit probability of recurrence is defined as: Emax(d,x)=α+βx+δd^k/d^k+γ^k,
# The Emax model was also fitted with random intercepts for study and study site.
# To determine the main predictors of recurrence, we fitted a multivariable penalised Bayesian logistic regression model. This included the following variables as predictors: the tafenoquine mg/kg dose; the plasma tafenoquine AUC[0,∞); the plasma tafenoquine Cmax; the day 7 MetHb concentration (%); the terminal elimination half-life t1/2; and the baseline parasite density. The model included random intercept terms for each study and study site. […] To avoid convergence issues resulting from the co-linearity of the predictors, the prior on all non-hierarchical coefficients was set to a Normal(0,0.5). This prior effectively shrinks the regression coefficients towards zero. It can be interpreted as follows: plausible odds-ratios for recurrence for one standard deviation change for each of the fixed effect predictors lie approximately between 0.38 and 2.7).
# In a priori sensitivity analyses, all recurrences up until 6 months were included as both binary and time to event outcomes. The time to first recurrence was defined as a P. vivax episode between day 7 and day 180 with right censoring at the last recorded visit. We also re-ran the same models in patients who received a 300 mg single dose of tafenoquine only (i.e. the current recommended treatment).
# [3] = no reference given; cited from earlier work
smiles,measurement,setting,value
CCCCN(CCCC)CC(O)c1cc(Cl)cc2c1-c1ccc(Cl)cc1/C2=C/c1ccc(Cl)cc1 (stereo not drawn) [lumefantrine],reduction in day 7 methaemoglobin per ten-fold increase in day 7 plasma lumefantrine concentration,"[1]; healthy volunteers randomised to tafenoquine + AL, 95% CI 3 to 62%",40%
Clc1ccc2c(N3CCN(CCCN4CCN(c5ccnc6cc(Cl)ccc56)CC4)CC3)ccnc2c1 [piperaquine],association of day 7 piperaquine concentration with day 7 MetHb (reduction),"[1]; healthy volunteers, tafenoquine + DHA-PQP, no clear association, 95% CI –27 to 72%",40%
COc1cc(NC(C)CCCN)c2ncccc2c1 (stereo not drawn) [primaquine],posterior probability that the recurrence was more likely following primaquine,[2]; 3.5 mg/kg primaquine vs 5 mg/kg tafenoquine,0.73
same,Recurrence at 4 months,"[2]; PQ low-dose 15 mg base daily for 14 days + chloroquine, n=257",57 (22.2) total number (%)
same,mean probability of recurrence at 4 months,"[2]; logistic model estimate, following 3.5 mg/kg primaquine, 95% CI 0.10–0.26",0.17
same,terminal elimination half-life,[3],5 h
